Test results published in patent publication US10222368B2 (priority 2012, dated 2019).

Target: T1, mu opiate receptor (MOR) (Rattus norvegicus, UniProt P33535)
T1 construct: from tissue; host or cells: striatal tissue (membrane preparation)
Experiment: MOR agonist activity using [35S]GTPγS binding assay in striatal membranes
Assay type: biochemical
Details: for MOR agonist activity, [35S]GTPγS binding, FLNA-binding compound as agonist at 0.1 μM / MOR agonist activity, [35S]GTPγS binding, FLNA-binding compound as agonist at 1 μM: Series C-2; for MOR agonist activity, [35S]GTPγS binding, 1 μM + BFNA: 1 μM compound + 1 μM β-FNA (MOR antagonist)
Method: To assess the mu opiate receptor (MOR) agonist activity of positive compounds from the FLNA screening, compounds were tested in a [^35S]GTPγS binding assay using striatal membranes. […] This assay measures a functional consequence of receptor occupancy at one of the earliest receptor-mediated events. The assay permits for traditional pharmacological parameters of potency, efficacy and antagonist affinity, with the advantage that agonist measures are not subjected to amplification or other modulation that may occur when analyzing parameters further downstream of the receptor.
Thus, striatal tissue was homogenized in 10 volumes of ice cold 25 mM HEPES buffer, pH 7.4, which contained 1 mM EGTA, 100 mM sucrose, 50 μg/ml leupeptin, 0.04 mM PMSF, 2 μg/ml soybean trypsin inhibitor and 0.2% 2-mercaptoethanol. The homogenates were centrifuged at 800×g for 5 minutes and the supernatants were centrifuged at 49,000×g for 20 minutes.
The resultant striatal membrane preparation (200 μg) was admixed and maintained (incubated) at 30° C. for 5 minutes in reaction buffer as above that additionally contained 1 mM MgCl2 and 0.5 nM [^35S]GTPγS (0.1 μCi/assay, PerkinElmer Life and Analytical Sciences) in a total volume of 250 μl and continued for 5 minutes in the absence or presence of 0.1-10 μM of an assayed compound of interest. The reaction was terminated by dilution with 750 μl of ice-cold reaction buffer that contained 20 mM MgCl2 and 1 mM EGTA and immediate centrifugation at 16,000×g for 5 minutes.
Normal rabbit serum (1 μl) was added to 1 ml of lysate and incubated at 25° C. for 30 minutes. Nonspecific immune complexes were removed by incubation with 25 μl of protein A/G-conjugated agarose beads at 25° C. for 30 minutes followed by centrifugation at 5,000×g at 4° C. for 5 minutes. The supernatant was divided and separately incubated at 25° C. for 30 minutes with antibodies raised against Gαo proteins (1:1,000 dilutions).
The immunocomplexes so formed were collected by incubation at 25° C. for 30 minutes with 40 μl of agarose-conjugated protein A/G beads and centrifugation at 5,000×g at 4° C. for 5 minutes. The pellet was washed and suspended in buffer containing 50 mM Tris-HCl, pH 8.0, and 1% NP-40. The radioactivity in the suspension was determined by liquid scintillation spectrometry.

[1] = 0.1 μM compound, striatal membranes
[2] = 1 μM compound, striatal membranes
[3] = Series C-1, 1 μM compound + BFNA relative to DAMGO + BFNA
[4] = Series C-1, 0.1 μM compound relative to DAMGO (0.1 μM)
[5] = 0.1 μM compound, relative to DAMGO
[6] = 1 μM compound, relative to DAMGO

T1 sequence (P33535 whole entry): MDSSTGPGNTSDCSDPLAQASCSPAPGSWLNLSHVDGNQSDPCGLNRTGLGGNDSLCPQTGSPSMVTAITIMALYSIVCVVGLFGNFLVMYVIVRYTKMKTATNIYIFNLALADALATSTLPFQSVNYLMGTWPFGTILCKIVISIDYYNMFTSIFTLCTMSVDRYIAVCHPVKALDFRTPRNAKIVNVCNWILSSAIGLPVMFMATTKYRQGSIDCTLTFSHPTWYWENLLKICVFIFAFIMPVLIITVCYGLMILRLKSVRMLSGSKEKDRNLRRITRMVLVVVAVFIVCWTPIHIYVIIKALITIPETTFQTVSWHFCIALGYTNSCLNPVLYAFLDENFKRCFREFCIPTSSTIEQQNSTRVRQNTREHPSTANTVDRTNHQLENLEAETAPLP

| SMILES | MOR agonist activity, [35S]GTPγS binding, FLNA-binding compound as agonist at 0.1 μM [1] [%] | MOR agonist activity, [35S]GTPγS binding, 1 μM + BFNA (striatal membranes) [%] | MOR agonist activity, [35S]GTPγS binding, FLNA-binding compound as agonist at 1 μM [2] [%] | other results |
| --- | --- | --- | --- | --- |
| O=C1CN(C2CCc3ccccc3C2)C2(CCN(S(=O)(=O)c3ccccc3)CC2)N1 (stereo not shown) [C0136M (P5)] | 176.8 | 74.5 | 237.3 | – |
| O=C1CN(Cc2ccccc2)C2(CCN(C3CCCCC3)CC2)N1 [C0137M(P7)] | 180.8 | 55.8 | 193.8 | – |
| COc1c2c(cc3c1C(CC(=O)c1ccc(F)c(F)c1)[N+](C)(C)CC3)OCO2 (stereo not shown) [Compound B0003] | – | – | – | % DAMGO + BFNA (Series B, 1 μM compound + BFNA relative to DAMGO + BFNA): 29.0% |
| COc1cccc(CC(=O)CC2c3c(cc4c(c3OC)OCO4)CC[N+]2(C)C)c1OC.[I-] (stereo not shown) [Compound B0038] | – | – | – | MOR agonist activity, [35S]GTPγS binding, at 1 μM compound (Series B, 1 μM compound, [35S]GTPγS binding to Gαo, striatal membranes): 205.3% |
| COc1cccc(S(=O)(=O)N2CCC3(CC2)OCCN3S(=O)(=O)c2cccc(OC)c2)c1 [Compound C0002] | – | – | – | % DAMGO + BFNA [3]: 6.1% |
| O=S(=O)(c1ccc(OC(F)(F)F)cc1)N1CCC2(CC1)OCCN2S(=O)(=O)c1ccc(OC(F)(F)F)cc1 [Compound C0006] | – | – | – | % DAMGO + BFNA [3]: 7.2% |
| CC(C)c1ccc(S(=O)(=O)N2CCC3(CC2)OCCN3S(=O)(=O)c2ccc(C(C)C)cc2)cc1 [Compound C0007] | – | – | – | % DAMGO (0.1 μM) [4]: 46.0%; % DAMGO + BFNA [3]: 17.0% |
| N#Cc1ccc(S(=O)(=O)N2CCC3(CC2)OCCN3S(=O)(=O)c2ccc(C#N)cc2)cc1 [Compound C0008] | – | – | – | % DAMGO + BFNA [3]: 4.4% |
| CC(=O)c1ccc(S(=O)(=O)N2CCC3(CC2)OCCN3S(=O)(=O)c2ccc(C(C)=O)cc2)cc1 [Compound C0011] | 217.0 | 19.0 | 305.0 | – |
| CC(=O)Nc1ccc(S(=O)(=O)N2CCC3(CC2)OCCN3S(=O)(=O)c2ccc(NC(C)=O)cc2)cc1 [Compound C0013] | – | – | – | % DAMGO (0.1 μM) [4]: 91.0% |
| Cc1cccc(S(=O)(=O)N2CCC3(CC2)OCCN3S(=O)(=O)c2cccc(C)c2)c1 [Compound C0014] | – | – | – | % DAMGO (0.1 μM) [4]: 82.0% |
| COc1ccc(S(=O)(=O)N2CCC3(CC2)NCCO3)cc1 [Compound C0026] | 207.2 | 21.2 | 288.4 | – |
| COc1ccc(S(=O)(=O)N2CCOC23CCNCC3)cc1 [Compound C0027] | 233.2 | 72.2 | 313.9 | – |
| CCCCc1ccc(S(=O)(=O)N2CCC3(CC2)OCCN3S(=O)(=O)c2ccc(CCCC)cc2)cc1 [Compound C0030] | – | – | – | % DAMGO (0.1 μM) [4]: 96.0%; % DAMGO (1 μM) (Series C-1, 1 μM compound relative to DAMGO (1 μM)): 98.0% |
| O=[N+]([O-])c1ccc(S(=O)(=O)N2CCC3(CC2)NCCO3)cc1 [Compound C0040] | 145.8 | 90.4 | 308.3 | – |
| COc1ccc(S(=O)(=O)N2CCOC23CCN(C(=O)OC(C)(C)C)CC3)cc1 [Compound C0043] | 175.4 | 83.3 | 242.6 | – |
| O=[N+]([O-])c1ccc(S(=O)(=O)N2CCC3(CC2)NCCS3)cc1 [Compound C0044] | 173.7 | 59.1 | 280.1 | – |

| SMILES | MOR agonist activity, [35S]GTPγS binding, FLNA-binding compound as agonist at 0.1 μM [1] [%] | MOR agonist activity, [35S]GTPγS binding, 1 μM + BFNA (striatal membranes) [%] | MOR agonist activity, [35S]GTPγS binding, FLNA-binding compound as agonist at 1 μM [2] [%] | other results |
| --- | --- | --- | --- | --- |
| O=[N+]([O-])c1ccc(S(=O)(=O)N2CCC3(CC2)NCCCO3)cc1 [Compound C0045] | 149.2 | 105.3 | 238.8 | – |
| CC(=O)c1ccc(S(=O)(=O)N2CCOC23CCNCC3)cc1 [Compound C0046] | 286.2 | 156.8 | 492.9 | – |
| CC(=O)N1CCSC12CCN(S(=O)(=O)c1ccc([N+](=O)[O-])cc1)CC2 [Compound C0050] | 110.3 | 59.0 | 127.6 | – |
| CC(=O)c1ccc(C(=O)N2CCC3(CC2)OCCN3S(=O)(=O)c2ccc(C(C)=O)cc2)cc1 [Compound C0052] | – | – | – | % DAMGO + BFNA [3]: 97.0% |
| CC(=O)c1ccc(C(=O)N2CCC3(CC2)OCCN3C(=O)c2ccc(C(C)=O)cc2)cc1 [Compound C0054] | – | – | – | % DAMGO (0.1 μM) [4]: 47.0% |
| CC(=O)c1ccc(S(=O)(=O)N2CCC3(CC2)OCCN3S(C)(=O)=O)cc1 [Compound C0056] | 98.6 | 86.3 | 193.4 | % DAMGO (0.1 μM) [5]: 68.0%; % DAMGO (1 μM) [6]: 83.0% |
| CC(=O)c1ccc(S(=O)(=O)N2CCC3(CC2)NCCS3)cc1 [Compound C0060] | 166.5 | 143.9 | 218.9 | – |
| CC(=O)c1ccc(S(=O)(=O)N2CC(=O)NC23CCNCC3)cc1 [Compound C0086M] | 206.8 | 152.3 | 265.3 | – |
| CC(=O)c1ccc(S(=O)(=O)N2CCC3(CC2)NC(=O)CO3)cc1 [Compound C0087M] | 262.8 | 142.5 | 329.6 | % DAMGO (0.1 μM) [5]: 138.9%; % DAMGO + BFNA (1 μM compound + BFNA, relative to DAMGO + BFNA): 293.8%; % DAMGO (1 μM) [6]: 132.8% |
| COc1ccc(S(=O)(=O)N2CCOC23CCN(C)CC3)cc1 [Compound C0088M] | 276.3 | 177.1 | 355.3 | – |
| CCN1CCC2(CC1)OCCN2S(=O)(=O)c1ccc(OC)cc1 [Compound C0089M] | 234.5 | 81.9 | 295.3 | – |
| COc1ccc(S(=O)(=O)N2CCOC23CCN(CC2CC2)CC3)cc1 [Compound C0090M] | 237.0 | 41.0 | 341.0 | – |
| C=CCN1CCC2(CC1)OCCN2S(=O)(=O)c1ccc(OC)cc1 [Compound C0091M] | 207.9 | 80.8 | 274.4 | – |
| CC(=O)c1ccc(S(=O)(=O)N2CCOC23CCN(C)CC3)cc1 [Compound C0093M] | 140.0 | 44.0 | 211.8 | – |
| CCN1CCC2(CC1)OCCN2S(=O)(=O)c1ccc(C(C)=O)cc1 [Compound C0094M] | 172.5 | 115.3 | 263.5 | – |
| CC(=O)c1ccc(S(=O)(=O)N2CCOC23CCN(CC2CC2)CC3)cc1 [Compound C0095M] | 189.1 | 107.7 | 224.6 | – |
| C=CCN1CCC2(CC1)OCCN2S(=O)(=O)c1ccc(C(C)=O)cc1 [Compound C0096M] | 186.4 | 127.1 | 328.9 | % DAMGO (1 μM) [6]: 130.0% |
